Results published in paper PMC8528861, “Structural and functional analysis of target recognition by the lymphocyte adaptor protein LNK” (Nature Communications, 2021).

Key:
Experiment in all cases: Thermostability assay
Conditions in all cases: for Tm: protein 100 μM, peptide five-fold molar excess, phenyl phosphate 8 mM; for delta Tm / Tm, plus phosphotyrosine: 10 mM phosphotyrosine; for delta Tm: relative to apo Tm; for Tm, plus phosphotyrosine: protein 30 μM in PBS
R387C LNK SH2 domain = target: T1, R387C LNK SH2 domain (Mus musculus, UniProt O09039, R387C); assay type: binding
T1 construct: DNA encoding the mouse LNK SH2 domain (residues 324–446) and an N-terminal NusA; NusA (N, cleaved yes); made in house; host or cells: E. coli
Description: (§1) Using mouse SH2 domain equivalents of these variants we investigated whether the incorporation of these mutations affected protein stability by measuring their melting point (Tm).
(§2) For peptide and phenyl phosphate experiments, proteins were desalted into 100 mM NaCl, 20 mM Tris (pH 8.0), 2 mM TCEP buffer and diluted to 100 μM. Where peptides were used, a five-fold molar excess of peptide was added to each sample, in phenyl phosphate conditions concentration was 8 mM. For experiments were phosphotyrosine, proteins were diluted to 30 μM in PBS and in phosphate conditions, concentration was 10 mM. Ten mcroliter of each sample was transferred into a capillary and measured from 35 to 95 °C using a Tycho N6T (Nanotemper). Data were analyzed in Prism.

R387H LNK SH2 domain = target: T2, R387H LNK SH2 domain (Mus musculus, UniProt O09039, R387H); assay type: binding
T2 construct: DNA encoding the mouse LNK SH2 domain (residues 324–446) and an N-terminal NusA; NusA (N, cleaved yes); made in house; host or cells: E. coli
Description: as §1, §2

WT LNK SH2 domain = target: T3, WT LNK SH2 domain (Mus musculus, UniProt O09039); assay type: binding
T3 construct: DNA encoding the mouse LNK SH2 domain (residues 324–446) and an N-terminal NusA; NusA (N, cleaved yes); made in house; host or cells: E. coli (tuner (DE3), BL21(DE3) or C43)
Description: as §1, §2

V374M LNK SH2 domain = assay type: binding, mouse
Description: as §1, §2

T3 sequence (O09039 324-446): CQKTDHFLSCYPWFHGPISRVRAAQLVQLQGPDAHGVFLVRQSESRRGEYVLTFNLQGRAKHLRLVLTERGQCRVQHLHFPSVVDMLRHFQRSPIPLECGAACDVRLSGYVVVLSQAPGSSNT
T1 sequence (O09039 324-446 R387C): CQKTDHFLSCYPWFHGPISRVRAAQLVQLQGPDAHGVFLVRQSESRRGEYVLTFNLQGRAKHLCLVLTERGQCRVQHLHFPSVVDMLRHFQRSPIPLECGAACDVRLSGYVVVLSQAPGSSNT
T2 sequence (O09039 324-446 R387H): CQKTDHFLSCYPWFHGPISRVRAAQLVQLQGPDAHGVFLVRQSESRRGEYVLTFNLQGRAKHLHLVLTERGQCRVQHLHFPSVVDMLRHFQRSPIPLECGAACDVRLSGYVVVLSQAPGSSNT

O=P(O)(O)Oc1ccccc1 [Phenyl Phos, phenyl phosphate]
Tm (R387C LNK SH2 domain; replicate 1): 56.6 °C
Tm (R387C LNK SH2 domain; replicate 2): 54.9 °C
Tm (R387C LNK SH2 domain; replicate 3): 54.8 °C
Tm (R387H LNK SH2 domain; replicate 1): 55.7 °C
Tm (R387H LNK SH2 domain; replicate 2): 56.0 °C
Tm (R387H LNK SH2 domain; replicate 3): 56.2 °C
Tm (WT LNK SH2 domain; replicate 1): 60.6 °C
Tm (WT LNK SH2 domain; replicate 2): 61.6 °C
Tm (WT LNK SH2 domain; replicate 3): 60.8 °C
Tm (V374M LNK SH2 domain; replicate 1): 54.0 °C
Tm (V374M LNK SH2 domain; replicate 2): 54.3 °C
Tm (V374M LNK SH2 domain; replicate 3): 54.7 °C

N[C@@H](Cc1ccc(OP(=O)(O)O)cc1)C(=O)O [Phosphotyrosine, phosphotyrosine]
delta Tm (R387C LNK SH2 domain; replicate 1): 5.7 °C
delta Tm (R387C LNK SH2 domain; replicate 2): 6.5 °C
delta Tm (R387C LNK SH2 domain; replicate 3): 6.1 °C
delta Tm (R387C LNK SH2 domain; replicate 4): 6.2 °C
delta Tm (R387C LNK SH2 domain; replicate 5): 6.4 °C
Tm, plus phosphotyrosine (R387C LNK SH2 domain; replicate 1): 56.8 °C
Tm, plus phosphotyrosine (R387C LNK SH2 domain; replicate 2): 57.5 °C
Tm, plus phosphotyrosine (R387C LNK SH2 domain; replicate 3): 57.1 °C
Tm, plus phosphotyrosine (R387C LNK SH2 domain; replicate 4): 57.2 °C
Tm, plus phosphotyrosine (R387C LNK SH2 domain; replicate 5): 57.6 °C
delta Tm (R387H LNK SH2 domain; replicate 1): 3.9 °C
delta Tm (R387H LNK SH2 domain; replicate 2): 3.9 °C
delta Tm (R387H LNK SH2 domain; replicate 3): 3.6 °C
delta Tm (R387H LNK SH2 domain; replicate 4): 3.4 °C
delta Tm (R387H LNK SH2 domain; replicate 5): 3.5 °C
Tm, plus phosphotyrosine (R387H LNK SH2 domain; replicate 1): 55.2 °C
Tm, plus phosphotyrosine (R387H LNK SH2 domain; replicate 2): 55.2 °C
Tm, plus phosphotyrosine (R387H LNK SH2 domain; replicate 3): 54.8 °C
Tm, plus phosphotyrosine (R387H LNK SH2 domain; replicate 4): 54.9 °C
Tm, plus phosphotyrosine (R387H LNK SH2 domain; replicate 5): 55 °C
delta Tm (WT LNK SH2 domain; replicate 1): 6.6 °C
delta Tm (WT LNK SH2 domain; replicate 2): 8.1 °C
delta Tm (WT LNK SH2 domain; replicate 3): 7.6 °C
delta Tm (WT LNK SH2 domain; replicate 4): 8.1 °C
Tm, plus phosphotyrosine (WT LNK SH2 domain; replicate 1): 61.1 °C
Tm, plus phosphotyrosine (WT LNK SH2 domain; replicate 2): 61.7 °C
Tm, plus phosphotyrosine (WT LNK SH2 domain; replicate 3): 61.9 °C
Tm, plus phosphotyrosine (WT LNK SH2 domain; replicate 4): 62.5 °C
delta Tm (V374M LNK SH2 domain; replicate 1): 3.1 °C
delta Tm (V374M LNK SH2 domain; replicate 2): 3.2 °C
delta Tm (V374M LNK SH2 domain; replicate 3): 3.3 °C
delta Tm (V374M LNK SH2 domain; replicate 4): 3.2 °C
delta Tm (V374M LNK SH2 domain; replicate 5): 3.4 °C
Tm, plus phosphotyrosine (V374M LNK SH2 domain; replicate 1): 55 °C
Tm, plus phosphotyrosine (V374M LNK SH2 domain; replicate 2): 55.1 °C
Tm, plus phosphotyrosine (V374M LNK SH2 domain; replicate 3): 55.2 °C
Tm, plus phosphotyrosine (V374M LNK SH2 domain; replicate 4): 55.2 °C
Tm, plus phosphotyrosine (V374M LNK SH2 domain; replicate 5): 55.2 °C
